From US20050175555A1, “Polyunsaturated linear aldehydes and their derivatives with anti-radical and anti-tumoral activity” (priority 2002, published 2005) come the findings set out here.

For the assay, the system named is UV-induced erythema. Briefly: UV-induced erythema prevention test. The settings on record: guinea pig ear, UV lamp 30 sec, 10% suspension topical, approx. 3 hours. Type of assay: in vivo. On the procedure: UV-induced erythema was caused by applying a UV lamp (Hanoivna Kramager) to the ear of a guinea pig for 30 sec; the lamp transmitted rays with a wavelength of […], which consequently included UV-B, UV-C and UV-A rays, through a special filter.
Excipients only or a suspension containing 5 or 10% 2,4,6,8,10,12,14-hexadecaheptaenol palmitate were spread on the ear of the test animals, and the temperature increase resulting from the UV-induced erythema was measured with a thermoelectric thermometer after approx. 3 hours in the control animals and the test animals.

As to `CC=CC=CC=CC=CC=CC=CC=CCOC(=O)CCCCCCCCCCCCCCC` [2,4,6,8,10,12,14-hexadecaheptaenyl palmitate], the “appearance of heat and erythema” value is recorded as “inhibited”.
